According to PMC7822874, “Chemoprotective antimalarials identified through quantitative high-throughput screening of Plasmodium blood and liver stage parasites” (Scientific Reports, 2021):
Like-named read-outs stand apart in the source and are kept apart here.

What was measured:
in vitro = conditions: human
[1] = test system: Plasmodium falciparum Dd2 asexual blood stage parasites; experiment: microbe, parasite or virus in culture; design: species or system Plasmodium falciparum Dd2 in human erythrocytes; single determination (one 11-point concentration-response curve); conditions: Plasmodium falciparum, DD2, Erythrocyte, 72 h
[2] = HepG2-A16-CD81EGFP cells, uninfected

| Compound | viability at 66 h (in vitro; [2]) [%] | AC50 ([1]; read-out: AC50) [µM] | viability at 48 h, 1 µM (in vitro; [2]) [%] | viability at 48 h, 3 µM (in vitro; [2]) [%] | also measured |
| --- | --- | --- | --- | --- | --- |
| Oc1ccc(Nc2ccnc3cc(Cl)ccc23)cc1 [MLS000737975-01] | 96.9 | 1.68 |  |  |  |
| CCc1cccc2sc(N3CCN(C(=O)c4ccc([N+](=O)[O-])o4)CC3)nc12 [MLS001234237-01] |  | 1.06 | 106 | 115 |  |
| Cc1cc(NC(=O)CN2CCN(c3ccc(O)cc3)CC2)no1 [MLS000565196-01] |  | 4.73 | 104 | 107 |  |
| O=C(c1ccc([N+](=O)[O-])o1)N1CCN(c2nc3c(F)cc(F)cc3s2)CC1 [MLS001234228-01] |  | 5.96 | 103 | 108 |  |
| CCOC(=O)c1c(CN(C)C)n(-c2ccc(C)cc2)c2cc(Br)c(O)cc12 [MLS000705141-01] |  | 4.22 | 101 | 101 |  |
| O=C(CC[S+](=O)([O-])c1cc(Br)cc2c1N(C(=O)C1CC1)CC2)Nc1ccc(Br)cc1F [NCGC00107188-01] | 94 |  |  |  | AC50 [1]: 3.35 µM |
| CN(C)c1cc[n+](CC(=O)c2cccs2)cc1 [MLS001207444-01] | 101 | 6.68 |  |  |  |
| COc1cccc(N=C(S)N2CCN(S(=O)(=O)c3ccc(F)cc3)CC2)c1 [MLS001230093-01] |  | 2.66 | 91 | 89 |  |
| COC(=O)[C@]1(C)CCC[C@@]2(C)C3CC[C@@]4(C)C[C@]3(CCC21)CC(=O)N4Cc1ccc(OC)cc1 (stereo partly shown) [MLS002207414-01] | 96.7 | 3.76 |  |  |  |
| C#CCN1c2ccccc2Sc2cccnc21 [MLS001166384-01] | 99.6 | 6.68 |  |  |  |
| COc1ccc(CNCc2cc3c(C(C)(C)C)nn(-c4ccccc4)c3[nH]c2=O)cc1 [MLS000067276-01] |  | 0.841 | 103 | 109 |  |
| Cc1cc(C)cc(N(CC(=O)NCc2ccc3c(c2)OCO3)C(=O)CCC(=O)Nc2ccccn2)c1 [MLS000032464-01] | 96.4 | 4.22 |  |  |  |
| Cc1cccc(NC2=C(NC(=O)c3ccccc3)C(=O)c3ccccc3C2=O)c1 [MLS000392330-01] |  | 0.944 | 98 | 95 |  |
| CCCCN(C)CCNC(=O)c1cc2c(-c3cccc(OC)c3)nn(C)c2s1 [MLS001199565-01] |  | 6.68 | 86 | 85 |  |
| COc1cc2c(cc1O)CC[n+]1cc3c(OC)c(OC)ccc3cc1-2 [MLS000563433-01] | 97.8 | 7.5 |  |  |  |
| O=C(O)c1ccc(N/N=C/c2cn(-c3ccccc3)nc2-c2cccs2)cc1 [MLS000759699-01] |  | 2.66 | 112 | 103 |  |
| COc1cccc(NC(=O)c2ccc(NCCCN3CCC(C)CC3)c([N+](=O)[O-])c2)c1 [MLS000689409-01] | 108 | 7.5 |  |  |  |
| O=C(CC[S+](=O)([O-])c1cc(Br)cc2c1N(C(=O)C1CC1)CC2)Nc1ccc(C(F)(F)F)cc1 [NCGC00107224-01] | 97.7 |  |  |  | AC50 [1]: 1.33 µM |
| CCSc1nc2sc3c(c2c(=O)n1-c1ccccc1)CCN(C)C3 [MLS001212076-01] |  | 6.68 | 104 | 103 |  |
| Cc1ccccc1C(=O)NC(CC(C)C)C(=O)OCC(=O)c1c(N)n(C)c(=O)n(C)c1=O (stereo not shown) [MLS001033160-01] | 106 | 2.66 |  |  |  |
| COc1ccc2ccc(O)c(CN3CC=C(c4ccccc4)CC3)c2c1 [MLS000760157-01] |  | 8.41 |  |  | viability at 48 h, 1 µM (in vitro): 107%; viability at 48 h, 3 µM (in vitro): 101% |
| CCCCC(O)(c1ccc(CC)cc1)C(CN1CCOCC1)c1ccccc1 (stereo not shown) [MLS001198887-01] |  | 4.73 | 88 | 85 |  |

| Compound | viability at 66 h (in vitro; [2]) [%] | AC50 ([1]; read-out: AC50) [µM] | viability at 48 h, 1 µM (in vitro; [2]) [%] | viability at 48 h, 3 µM (in vitro; [2]) [%] | also measured |
| --- | --- | --- | --- | --- | --- |
| Cc1ccc(S(=O)(=O)c2nnn3c2nc(N2CCN(c4ccccn4)CC2)c2ccccc23)cc1 [MLS001124278-01] |  | 7.5 | 98.6 |  | viability at 48 h (in vitro; [2]): 98.6% |
| O=C1/C(=C/Nc2cccc(S(=O)(=O)NC3=NCCCCC3)c2)c2ccccc2C(=O)N1Cc1ccccc1 [MLS000775273-01] | 93.2 | 13.3 |  |  |  |
| CC(C)(C)c1ccc(O)c(CN2CCN(c3ccccc3)CC2)c1 [MLS000084717-01] |  |  |  |  | viability (in vitro): 98.2%; AC50 [1]: 1.5 µM |
| CCOC(=O)c1c(-c2ccccc2)oc2ccc(O)c(CN3CCCC3)c12 [MLS000530619-01] |  | 0.596 | 98.8 |  | viability at 48 h (in vitro; [2]): 98.8% |
| CCOC(=O)C1=C(C)N=c2sc(=Cc3ccc(OCC(=O)O)cc3)c(=O)n2C1c1cc(OC)c(OC)c(OC)c1 (stereo not shown) [MLS001178475-01] |  | 1.88 | 98 |  | viability at 48 h (in vitro; [2]): 98% |
| COc1ccc([S+](=O)([O-])Nc2ccc(C)n(CC(=O)Nc3ccccc3)c2=O)cc1 [NCGC00430934-01] | 103 | 2.66 |  |  |  |
| O=S(=O)(c1ccc2ccccc2c1)N1CCN(C(S)=Nc2ccc(F)c(Cl)c2)CC1 [MLS000394708-01] |  | 1.06 | 111 | 98 |  |
| CC(NCc1ccc(Cl)cc1Cl)C(O)c1ccccc1 (stereo not shown) [MLS000582862-01] |  | 4.73 |  |  | viability at 48 h, 1 µM (in vitro): 120%; viability at 48 h, 3 µM (in vitro): 104% |
| Cc1cc(Nc2ccccc2)nc2cc(O)ccc12 [MLS000586979-01] |  | 0.422 | 100 | 100 |  |
| CCOc1ccc2nc(C)cc(Nc3cccc([N+](=O)[O-])c3)c2c1 [MLS000663974-01] | 102 |  |  |  |  |
| Cc1ccc2nc3c(c(Nc4ccc(O)cc4)c2c1)CCC3 [MLS001196969-01] |  |  | 99 | 99 |  |
| COC(=O)c1cc2sc(Cl)cc2n1CC(=O)Nc1ccc(OC)c(OC)c1OC [MLS000093488-01] |  |  | 101 |  | viability at 48 h (in vitro; [2]): 101% |
| O=C(C[n+]1cc(-c2ccccc2)n2c1CCC2)c1cccs1 [MLS001003812-01] |  |  | 94 | 86 |  |
| CCOC(=O)Cn1c2c(c(=N)c3c1CCC3)CCCC2 [MLS000702567-01] | 106 |  |  |  |  |
| CCc1ccc2c(c1)C1(NN=C(c3ccc(C)cc3)S1)C(=O)N2 (stereo not shown) [MLS000528737-01] |  |  | 115 | 80 |  |
| COc1cccc(N2C(N)=NC(N)=NC2(C)C)c1 [MLS000047853-01] |  |  | 103 |  | viability at 48 h (in vitro; [2]): 103% |
| C=C(C)CSc1nc2sc3c(c2c(=O)n1-c1ccc(OC)cc1)CCN(C)C3 [MLS001173660-01] |  |  | 106 | 105 |  |
| CC(C)(C)NC(=O)Cn1ccc(=N)c2ccccc21 [MLS000068809-01] |  |  | 99 | 97 |  |
| Cc1cccc(CSc2nn3c(=O)c(C)nnc3s2)c1 [MLS000724933-01] |  |  | 115 | 100 |  |
| CCOc1cc(CNC(C)C(O)c2ccccc2)cc(Cl)c1OCC (stereo not shown) [MLS000701716-01] |  |  |  |  | viability at 48 h, 1 µM (in vitro): 90%; viability at 48 h, 3 µM (in vitro): 88% |
| Cc1ccc2c(c1)-c1c(ssc1=S)C(C)(C)N2C(=O)c1ccco1 [MLS000525939-01] |  |  | 100 | 100 |  |
| Cc1cccc(NC(=O)c2cc(S(=O)(=O)N(C)c3ccc(F)cc3)ccc2Cl)n1 [MLS001160863-01] |  |  | 97 | 92 |  |

| Compound | viability at 66 h (in vitro; [2]) [%] | AC50 ([1]; read-out: AC50) [µM] | viability at 48 h, 1 µM (in vitro; [2]) [%] | viability at 48 h, 3 µM (in vitro; [2]) [%] | also measured |
| --- | --- | --- | --- | --- | --- |
| CCOc1cc(CN2CCCC(N3CCN(c4ccc(F)cc4)CC3)C2)ccc1OC (stereo not shown) [MLS001162894-01] |  |  | 114 | 103 |  |
| Cc1ccc(NN=C2C=CC(=O)c3ncccc32)cc1 [MLS000585898-01] |  |  | 93 | 88 |  |
| CCc1cc(C(=O)c2ccccc2)c(N)s1 [MLS001211275-01] | 107 |  |  |  |  |
| Cc1ccc(-n2nc3c(Cl)nnc(C)c3c2C)cc1 [MLS000698458-01] |  |  | 105 | 104 |  |
| COc1ccc(-c2c[n+](CC(=O)c3cccs3)c3n2CCC3)cc1 [MLS000333575-01] |  |  |  |  | viability (in vitro): 101% |
| COc1ccccc1NC(=O)Cn1c(C)ccc(N[S+](=O)([O-])c2ccccc2)c1=O [NCGC00430868-01] | 109 |  |  |  |  |
| Cc1ccc(-c2nc(CN3CCCCC3)cc(CN3CCCCC3)c2O)cc1 [MLS000713293-01] |  |  | 101 |  | viability at 48 h (in vitro; [2]): 101% |
| COC(CSc1nc(N)c2c3c(sc2n1)CN(C)CC3)OC [MLS001215130-01] | 97.5 |  |  |  |  |
| Cc1ccc2[nH]c(C(=O)Nc3ccc(F)cc3)cc2c1 [MLS001183414-01] | 99.7 |  |  |  |  |
| Cc1n[nH]c(=S)n(/N=C/c2cccs2)c1=O [MLS000780118-01] | 98.7 |  |  |  |  |
| O=S(=O)(c1ccc(F)cc1)N1CCN(/C(S)=N/Cc2ccco2)CC1 [MLS000409296-01] | 103 |  |  |  |  |
| Clc1cccc(CN2CCc3c([nH]c4ccccc34)C2)c1Cl [MLS001164092-01] |  |  | 104 |  | viability at 48 h (in vitro; [2]): 104% |
| CCOC(=O)Cn1c2c(c(=N)c3c1CCC3)CCC2 [MLS000080129-01] | 99.5 |  |  |  |  |
| c1cc(Nc2ncnc3sc4c(c23)CCC4)ccn1 [MLS000681348-01] |  |  | 103 |  | viability at 48 h (in vitro; [2]): 103% |
| COc1ccc(CCn2c(=N)c(C(=O)NC3CCCCC3)cc3c(=O)n4ccccc4nc32)cc1 [MLS001146200-01] |  |  | 102 | 98 |  |
| C=CCNc1nc(N(c2ccccc2)c2ccccc2)nc(-n2ccnc2)n1 [MLS000045718-01] | 107 |  |  |  |  |
| COc1ccc(C(=O)C[n+]2ccc(N(C)C)cc2)cc1 [MLS001044390-01] | 100 |  |  |  |  |
| COc1ccc(C2CC(c3cccs3)=NN2C(=O)c2ccco2)cc1OC (stereo not shown) [MLS000769739-01] | 101 |  |  |  |  |
| Cc1ccccc1Nc1nnc(SCc2cc(=O)n3ccsc3n2)s1 [MLS000565690-01] |  |  | 107 | 101 |  |
| COc1ccc2cc3cc(C(=O)NCCC(C)C)oc3nc2c1 [MLS001199461-01] |  |  | 101 | 101 |  |
